# Assay results: paper PMC12406198, “Decadentate Acyclic Chelators for Lanthanum Radiopharmaceuticals” (Journal of Medicinal Chemistry, 2025)
# Like-named read-outs stand apart in the source and are kept apart here.
# Legend:
# [1] = 0.15 M NaCl; ref footnote a; cited from earlier work
# [2] = literature value, cited from earlier work
# [3] = Ligand protonation constants by pH-potentiometric titration; format: physicochemical; conditions: sum of literature protonation constants of related ligands
# [4] = Stability constants of La^3+ complexes by pH potentiometry; format: physicochemical; conditions: −log[La^3+]free for [L] = 10 μM and [La^3+] = 1 μM at pH 7.4 and 25 °C; from literature constants
# Method: The stability constants of the La^3+ complexes were determined using pH potentiometry (I = 0.15 NaCl). A significant amount of the metal ion is not complexed by the TPADAC^4– ligand at the beginning of the titration at pH 1.7 (∼20%), which allows for stability constant determination using potentiometry. In the case of TPAEN^4– the amount of free La^3+ was small (∼4%), but the stability constants could be determined by fitting the titration data using both 1:1 and 1:2 (TPAEN^4–:La^3+) stoichiometries (Figure S1, Supporting Information). The TPADAC^4– ligand also forms complexes with 1:1 and 1:2 stoichiometries (Figure S2, Supporting Information).
# The thermodynamic stability of the complexes at physiologically relevant pH was assessed by calculating pLa values, defined as −log[La^3+]free for [L] = 10 μM and [La^3+] = 1 μM at pH 7.4 and 25 °C following the recommendation of Raymond. This is a result of the high stability constants (log K LaL) that characterize the formation of these complexes, as well as the relatively low basicity of these ligands. Indeed, cyclohexyl derivatives TPADAC^4– and CHXOCTAPA^4– display considerably higher basicity than the ethyl analogues, as indicated by the Σ log K i ^H (i = 1–5) values shown in Table . Similarly, DTPA and DO3A derivatives are characterized by rather high basicities, which results in relatively low pLa values.
# The pH-potentiometric titrations were carried out with a Methrohm 785 DMP titrator using a Metrohm-6.0233.100 combined electrode. The titrated solutions (5.000 mL) were thermostated at 25 °C and stirred and kept under inert gas atmosphere (N2) to avoid the effect of CO2. The pH-calibration of the electrode was performed using KH-phthalate (pH = 4.005) and borax (pH = 9.177) buffers. The concentrations of the ligand stock solutions were determined by pH-potentiometric titration. The protonation constants of the TPAEN^4– (in the pH range of 2.19–12.00 a total of 213 data pairs by titrating a 2.72 mM a ligand solution) and TPADAC^4– (in the pH range of 1.88–11.85 a total of 208 data pairs by titrating a 2.32 mM ligand solution), the stability and protonation constants of the complexes formed with La^3+ and the formation constants of their dinuclear complexes were determined by pH-potentiometric titration. The metal-to-ligand concentration ratios were 1:1 and 2:1. For the 1:1 ratio a total of 240 data pairs were recorded for a H4TPAEN concentration of 2.29 mM in the pH range of 1.77–11.86, while a total of 222 data pairs were collected in the pH range 1.72–11.85 for a 2.72 mM solution of H4TPADAC. For the 2:1 ratio we collected 259 data pairs for a 2.31 mM solution of H4TPAEN in the pH range of 1.73–11.82, and 259 data pairs for a 2.71 mM concentration of H4TPADAC in the pH range of 1.70–11.85. The calculation of [H^+] from the measured pH values was performed with the use of the method proposed by Irving et al. by titrating a 0.01 M HCl solution (I = 0.15 M NaCl) with a standardized NaOH solution. The differences between the measured and calculated pH values were used to obtain the [H^+] concentrations from the pH-data obtained in the titrations. The ionic product of water was determined from the same experiment in the pH range 11.25–11.85. The protonation and stability constants were calculated from the titration data with the PSEQUAD program. The quality of the fits was assessed with the fitting parameter (FP) calculated by PSEQUAD, which is defined as 2 FP=∑i=1n(Vi,calc−Vi,meas)^2/n−k
smiles,measurement,setting,value
"O=C(O)CN(CCN(CC(=O)O)Cc1cccc(C(=O)O)n1)Cc1cccc(C(=O)O)n1 [OCTAPA^4–, 6,6′-((ethane-1,2-diylbis((carboxymethyl)azanediyl))bis(methylene))dipicolinic acid]",log K LaL,[1],19.92
same,log K 1 ^H,[2]; ref footnote a,8.52
same,log K 2 ^H,[2]; ref footnote a,5.40
same,log K 3 ^H,[2]; ref footnote a,3.65
same,log K 4 ^H,[2]; ref footnote a,2.97
same,log K 5 ^H,[2]; ref footnote a,1.66
same,log K 1 ^H,[2]; ref footnote b,8.58
same,log K 2 ^H,[2]; ref footnote b,5.43
same,log K 3 ^H,[2]; ref footnote b,3.75
same,log K 4 ^H,[2]; ref footnote b,3.08
same,log K 5 ^H,[2]; ref footnote b,2.21
same,log K 6 ^H,[2]; ref footnote b,1.61 ^b
same,Σ log K i ^H (i = 1–5),[3],22.20
same,pLa,[4],19.7
